Like-named read-outs stand apart in the source and are kept apart here. No end group written: not given here.
Columns and labels:
[1] = tested on: spontaneously hypertensive rats (SP-SHR); experiment: Blood pressure after topical application in spontaneously hypertensive rats; assay type: in vivo, rat
From the text: To evaluate the ability of the amphiphilic peptide derivatives to exert systemic biological action after topical application, spontaneously hypertensive rats (SP-SHR) and Ang-(1-7) derivatives, as prepared in Example 1 were used.
SP-SHR rats (4-5 months-old with about 270 g body weight) were instrumented for acute blood pressure measurements using tribromoethanol anesthesia. Just after the arterial catheter implantation, the interscapular region was shaved for topical application of the formulation. Blood pressure (BP) was recorded 24 h after surgery (base line BP=173.0±6.2). BP was recorded in unanesthesized animals under resting conditions for 1 h. After that, a solution of Ang-(1-7) derivatives was applied topically (20 μl at 1 mg/ml) and BP was continuously recorded for 6 h.

[2] = human, in vivo; cited from earlier work
[3] = in vivo; cited from earlier work
dogs = settings: subcutaneous, 10 mg/(kg day) for 28 days; cited from earlier work
rats = settings: subcutaneous, 10 mg/(kg day) for 28 days; cited from earlier work
[4] = topical application 20 μl at 1 mg/ml

Row | Substance | duration of BP decrease [1, 4] | start of BP decrease after application [1, 4] | decrease of BP ([1]; topical application 20 μl at 1 mg/ml, BP recorded for 6 h) | plasma half-life [2] | change in BP ([1]; topical application) | plasma half-life [3] | detectable toxicities (dogs) | detectable toxicities (rats)
1 | Ang-(1-7) ester derivatives: Product of Example 1: Ang-(1-7) esterified with 1-octanol, mainly diester at C-terminal and Asp carboxyl groups, plus monoesters (DRVYIHP; not fully specified (residue 1, C-terminus); also: mixture: mainly diester at C-terminal and Asp carboxyl groups, plus monoesters; UniProt P01019 25-31, looked up) | up to 6 h | 90 min | up to 25 mmHg | – | – | – | – | –
2 | Asp^1-Arg^2-Val^3-Tyr^4-Ile^5-His^6-Pro^7 [Ang-(1-7)] | – | – | – | ~30 min | did not cause significant change in BP | about 10 min | did not lead to any detectable toxicities | did not lead to any detectable toxicities

From patent US20160168224A1, “PROCESS FOR PREPARING AMPHIPHILIC PEPTIDE DERIVATIVES” (UNIVERSIDADE FEDERAL DE MINAS GERAIS - UFMG, priority 2013, published 2016)
